Measurements published in patent US20200017495A1, “NOVEL HETEROCYCLIC COMPOUNDS AND THEIR USE IN PREVENTING OR TREATING BACTERIAL INFECTIONS” (priority 2017, published 2020).
Like-named read-outs stand apart in the source and are kept apart here.

Tests used:
[1] = target: TEM-1 (Escherichia coli, UniProt P62593); test: β-lactamase inhibitory activity, IC50 (nitrocefin hydrolysis); type: biochemical
Description: (§3) Enzymes were cloned in E. coli expression vector, expressed and purified in house using classical procedures. […] After 30 min of pre-incubation at room temperature, 15 μL of NCF (100 μM final) were finally added in each well. […] Enzyme activity was obtained by subtracting the background from the final signal, and was converted to enzyme inhibition using non inhibited wells. IC50 curves were fitted to a classical Langmuir equilibrium model with Hill slope using XLFIT (IDBS).

[2] = target: OXA-40 (Acinetobacter baumannii, UniProt Q8RLA6); test: as above; type: biochemical
OXA-40, sequence (Q8RLA6 entry or part of it): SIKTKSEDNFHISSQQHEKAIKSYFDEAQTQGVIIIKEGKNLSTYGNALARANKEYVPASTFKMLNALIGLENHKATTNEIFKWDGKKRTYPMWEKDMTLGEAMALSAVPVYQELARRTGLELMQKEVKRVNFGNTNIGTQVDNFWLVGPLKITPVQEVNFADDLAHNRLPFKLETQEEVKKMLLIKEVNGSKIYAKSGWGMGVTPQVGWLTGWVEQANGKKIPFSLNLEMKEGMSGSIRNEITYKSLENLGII
Description: as §3

[3] = target: PAE ampC (Pseudomonas aeruginosa, UniProt P24735); test: as above; type: biochemical, P. aeruginosa
PAE ampC, sequence (P24735 27-397): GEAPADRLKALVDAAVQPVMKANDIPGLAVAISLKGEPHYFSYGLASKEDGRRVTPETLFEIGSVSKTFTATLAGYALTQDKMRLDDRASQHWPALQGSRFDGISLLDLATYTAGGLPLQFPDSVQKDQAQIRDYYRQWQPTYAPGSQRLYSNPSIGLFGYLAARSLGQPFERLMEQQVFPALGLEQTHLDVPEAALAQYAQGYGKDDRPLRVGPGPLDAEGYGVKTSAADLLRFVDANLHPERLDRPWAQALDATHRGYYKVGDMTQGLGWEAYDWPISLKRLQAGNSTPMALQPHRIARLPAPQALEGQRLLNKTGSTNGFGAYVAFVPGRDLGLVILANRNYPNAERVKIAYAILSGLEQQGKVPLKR
Description: as §3

[4] = system: Providencia rettgeri (PRE) isolates; test: MIC of compounds alone and combined with antibacterials, broth microdilution (CLSI); type: cell-based; settings: Providencia rettgeri, read-out: MIC
Method in brief: (§1)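 Log-phase isolates were inoculated at a final 5.10^5 CFU/mL in cation-adjusted Mueller-Hinton broth and incubated 16-20 h at 35° C in ambient air. MIC was the lowest concentration preventing visible growth; for combinations, the antibacterial MIC was read at each compound concentration.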

[5] = system: Enterobacter cloacae (ECL) isolates; test: as above; type: cell-based; settings: Enterobacter cloacae, read-out: MIC
Method in brief: as §1

[6] = system: Klebsiella oxytoca (KOX) isolates; test: as above; type: cell-based; settings: Klebsiella oxytoca, alone, read-out: MIC
Method in brief: as §1

[7] = system: Serratia marcescens (SMA) isolates; test: as above; type: cell-based; settings: Serratia marcescens, read-out: MIC
Method in brief: as §1

[8] = target: SHV-12 (Klebsiella pneumoniae, UniProt P0AD64, E235K/G234S/L31Q); test: β-lactamase inhibitory activity, IC50 (nitrocefin hydrolysis); type: biochemical
SHV-12, sequence (P0AD64 22-286 L31Q/G234S/E235K): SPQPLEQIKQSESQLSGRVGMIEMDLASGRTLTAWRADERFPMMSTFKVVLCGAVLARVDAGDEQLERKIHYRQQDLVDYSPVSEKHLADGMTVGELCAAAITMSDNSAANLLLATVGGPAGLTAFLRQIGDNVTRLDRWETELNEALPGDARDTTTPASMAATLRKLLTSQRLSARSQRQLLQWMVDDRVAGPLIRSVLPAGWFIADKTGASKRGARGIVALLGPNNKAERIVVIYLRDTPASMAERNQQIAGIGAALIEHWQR
Description: Method 1: β-Lactamase Inhibitory Activity, Determination of IC50 (Table 1)
as §3

[9] = target: OXA-23 (Acinetobacter baumannii, UniProt Q9L4P2); test: as above; type: biochemical
OXA-23, sequence (Q9L4P2 18-273): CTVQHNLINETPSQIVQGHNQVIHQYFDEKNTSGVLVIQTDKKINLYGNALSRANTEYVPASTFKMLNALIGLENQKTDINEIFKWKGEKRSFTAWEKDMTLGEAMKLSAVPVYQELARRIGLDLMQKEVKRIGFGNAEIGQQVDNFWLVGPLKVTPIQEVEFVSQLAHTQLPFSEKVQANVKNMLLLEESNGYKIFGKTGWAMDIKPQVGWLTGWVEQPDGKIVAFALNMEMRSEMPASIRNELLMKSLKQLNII
Description: as §3

[10] = system: Citrobacter murliniae (CMU) isolates; test: MIC of compounds alone and combined with antibacterials, broth microdilution (CLSI); type: cell-based; settings: Citrobacter murliniae; CMU 210102; alone; read-out: MIC
Method in brief: (§2)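 Growth inhibition was read visually after 16-20 h at 35° C, giving compound MICs and antibacterial MICs at each fixed compound level. Bacteria in log phase were inoculated at 5.10^5 CFU/mL in ca-MHB onto DMSO-spotted compound or compound/antibacterial dilutions per CLSI microdilution.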

[11] = system: Providencia stuartii (PST) isolates; test: as above; type: cell-based; settings: Providencia stuartii, read-out: MIC
Method in brief: as §2

[12] = system: Salmonella typhimurium (STY) isolates; test: as above; type: cell-based; settings: Salmonella enterica, TYPHIMURIUM; STY S3371; alone; read-out: MIC
Method in brief: as §2

[13] = target: OXA-1 (Escherichia coli, UniProt P13661); test: β-lactamase inhibitory activity, IC50 (nitrocefin hydrolysis); type: biochemical
OXA-1, sequence (P13661 26-276): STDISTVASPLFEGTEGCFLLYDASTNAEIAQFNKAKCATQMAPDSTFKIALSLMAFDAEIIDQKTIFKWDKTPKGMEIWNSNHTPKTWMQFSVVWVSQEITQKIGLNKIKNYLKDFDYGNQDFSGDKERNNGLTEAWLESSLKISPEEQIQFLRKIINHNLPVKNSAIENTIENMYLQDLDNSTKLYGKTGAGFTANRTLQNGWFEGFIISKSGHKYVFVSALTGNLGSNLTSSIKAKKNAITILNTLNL
Description: as §3

[14] = strain PRE UFR96, compound alone
[15] = strain PRE UFR97, compound alone
[16] = strain PRE UFR236, compound alone
[17] = strain ECL UFR192, compound alone
[18] = strain ECL UFR193, compound alone
[19] = strain ECL UFR194, compound alone
[20] = strain ECL UFR195, compound alone
[21] = strain ECL UFR196, compound alone
[22] = strain ECL UFR197, compound alone
[23] = strain ECL UFR198, compound alone
[24] = strain ECL UFR203, compound alone
[25] = strain ECL UFR214, compound alone
[26] = strain ECL UFR252PT, compound alone
[27] = strain SMA UFR140, compound alone
[28] = strain SMA UFR238, compound alone
[29] = strain PST UFR98, compound alone

TEM-1, sequence (P62593 24-286 limits assumed): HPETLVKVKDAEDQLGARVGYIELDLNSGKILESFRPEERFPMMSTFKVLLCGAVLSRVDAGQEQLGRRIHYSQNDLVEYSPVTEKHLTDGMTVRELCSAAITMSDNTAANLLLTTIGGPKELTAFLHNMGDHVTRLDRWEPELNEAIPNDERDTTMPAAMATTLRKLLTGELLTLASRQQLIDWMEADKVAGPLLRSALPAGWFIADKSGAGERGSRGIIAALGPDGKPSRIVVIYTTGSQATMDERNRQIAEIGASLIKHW

O=C1N2CC(n3cccn3)=CC(C2)N1OC(F)(F)C(=O)[O-].[Li+] (centres unmarked) [AF3]
IC50 [1]: 0.81 nM
IC50 [2]: 8900 nM
IC50 [3]: 98 nM
MIC ([4]; PRE UFR99, alone): 16 µg/mL
MIC [4, 14]: 4 µg/mL
MIC [4, 15]: 32 µg/mL
MIC [4, 16]: 32 µg/mL
MIC ([5]; ECL 2185D, alone): 32 µg/mL
MIC ([5]; ECL 190310, alone): 32 µg/mL
MIC ([5]; ECL 190408, alone): 4 µg/mL
MIC ([5]; ECL 200138, alone): 16 µg/mL
MIC ([5]; ECL 200322, alone): 8 µg/mL
MIC ([5]; ECL 260033, alone): 16 µg/mL
MIC ([5]; ECL 260253, alone): 32 µg/mL
MIC ([5]; ECL 260323, alone): 16 µg/mL
MIC ([5]; ECL 260508, alone): 8 µg/mL
MIC ([5]; ECL HAN, alone): 32 µg/mL
MIC ([5]; ECL NEM146383, alone): 16 µg/mL
MIC ([5]; ECL P99, alone): 16 µg/mL
MIC ([5]; ECL UFR12, alone): 8 µg/mL
MIC ([5]; ECL UFR13, alone): 32 µg/mL
MIC ([5]; ECL UFR14, alone): 32 µg/mL
MIC ([5]; ECL UFR38, alone): 8 µg/mL
MIC ([5]; ECL UFR51, alone): 8 µg/mL
MIC ([5]; ECL UFR60, alone): 16 µg/mL
MIC ([5]; ECL UFR70, alone): 8 µg/mL
MIC ([5]; ECL UFR84, alone): 32 µg/mL
MIC ([5]; ECL UFR85, alone): 16 µg/mL
MIC ([5]; ECL UFR200, alone): 16 µg/mL
MIC [5, 17]: 32 µg/mL
MIC [5, 18]: 16 µg/mL
MIC [5, 19]: 16 µg/mL
MIC [5, 20]: 16 µg/mL
MIC [5, 21]: 16 µg/mL
MIC [5, 22]: 16 µg/mL
MIC [5, 23]: 32 µg/mL
MIC [5, 24]: 32 µg/mL
MIC [5, 25]: > 32 µg/mL
MIC [5, 26]: > 32 µg/mL
MIC ([6]; KOX UFR21): > 32 µg/mL
MIC ([6]; KOX UFR173): 16 µg/mL
MIC ([6]; KOX UFR223): 8 µg/mL
MIC ([6]; KOX UFR224): 8 µg/mL
MIC ([7]; SMA UFR30, alone): 8 µg/mL
MIC ([7]; SMA UFR134, alone): 32 µg/mL
MIC ([7]; SMA UFR135, alone): > 32 µg/mL
MIC ([7]; SMA UFR136, alone): > 32 µg/mL
MIC ([7]; SMA UFR137, alone): 32 µg/mL
MIC ([7]; SMA UFR138, alone): 16 µg/mL
MIC ([7]; SMA UFR139, alone): 32 µg/mL
MIC ([7]; SMA UFR141, alone): 32 µg/mL
MIC ([7]; SMA UFR142, alone): > 32 µg/mL
MIC ([7]; SMA UFR143, alone): 32 µg/mL
MIC ([7]; SMA UFR239, alone): 16 µg/mL
MIC [7, 27]: > 32 µg/mL
MIC [7, 28]: 32 µg/mL
IC50 [8]: 4.3 nM
IC50 [9]: 9600 nM
MIC [10]: 16 µg/mL
MIC ([11]; PST UFR94, alone): 16 µg/mL
MIC ([11]; PST UFR95, alone): > 32 µg/mL
MIC ([11]; PST UFR120, alone): 8 µg/mL
MIC ([11]; PST UFR121, alone): 8 µg/mL
MIC ([11]; PST UFR122, alone): 4 µg/mL
MIC ([11]; PST UFR123, alone): 4 µg/mL
MIC ([11]; PST UFR124, alone): 8 µg/mL
MIC ([11]; PST UFR125, alone): 4 µg/mL
MIC ([11]; PST UFR235, alone): 16 µg/mL
MIC [11, 29]: 16 µg/mL
MIC [12]: 8 µg/mL
IC50 [13]: 1100 nM

O=C1N2CC(c3ncco3)=CC(C2)N1OC(F)(F)C(=O)[O-].[Li+] (centres unmarked) [AF2]
IC50 [1]: 2.6 nM
IC50 [2]: 8300 nM
IC50 [3]: 280 nM
MIC ([4]; PRE UFR99, alone): 16 µg/mL
MIC [4, 14]: 8 µg/mL
MIC [4, 15]: > 32 µg/mL
MIC [4, 16]: 32 µg/mL
MIC ([5]; ECL 190408, alone): 4 µg/mL
MIC ([5]; ECL HAN, alone): 32 µg/mL
MIC ([5]; ECL NEM146383, alone): 32 µg/mL
MIC ([5]; ECL P99, alone): 8 µg/mL
MIC ([5]; ECL UFR12, alone): 16 µg/mL
MIC ([5]; ECL UFR13, alone): 16 µg/mL
MIC ([5]; ECL UFR14, alone): 16 µg/mL
MIC ([5]; ECL UFR38, alone): 8 µg/mL
MIC ([5]; ECL UFR51, alone): 8 µg/mL
MIC ([5]; ECL UFR60, alone): 16 µg/mL
MIC ([5]; ECL UFR70, alone): 8 µg/mL
MIC ([5]; ECL UFR84, alone): 32 µg/mL
MIC ([5]; ECL UFR85, alone): 8 µg/mL
MIC ([5]; ECL UFR200, alone): 32 µg/mL
MIC [5, 17]: 16 µg/mL
MIC [5, 18]: 16 µg/mL
MIC [5, 19]: 8 µg/mL
MIC [5, 20]: 16 µg/mL
MIC [5, 21]: 16 µg/mL
MIC [5, 22]: 8 µg/mL
MIC [5, 23]: 32 µg/mL
MIC [5, 24]: 32 µg/mL
MIC [5, 25]: 32 µg/mL
MIC [5, 26]: > 32 µg/mL
MIC ([6]; KOX UFR21): 16 µg/mL
MIC ([6]; KOX UFR173): 16 µg/mL
MIC ([6]; KOX UFR223): 8 µg/mL
MIC ([6]; KOX UFR224): 8 µg/mL
MIC ([7]; SMA UFR30, alone): 16 µg/mL
MIC ([7]; SMA UFR134, alone): 16 µg/mL
MIC ([7]; SMA UFR135, alone): > 32 µg/mL
MIC ([7]; SMA UFR136, alone): > 32 µg/mL
MIC ([7]; SMA UFR137, alone): 16 µg/mL
MIC ([7]; SMA UFR138, alone): 16 µg/mL
MIC ([7]; SMA UFR139, alone): > 32 µg/mL
MIC ([7]; SMA UFR141, alone): > 32 µg/mL
MIC ([7]; SMA UFR142, alone): 32 µg/mL
MIC ([7]; SMA UFR143, alone): 32 µg/mL
MIC ([7]; SMA UFR239, alone): 32 µg/mL
MIC [7, 27]: > 32 µg/mL
MIC [7, 28]: 16 µg/mL
IC50 [8]: 4.1 nM
IC50 [9]: 7400 nM
MIC [10]: 16 µg/mL
MIC ([11]; PST UFR94, alone): 16 µg/mL
MIC ([11]; PST UFR95, alone): 32 µg/mL
MIC ([11]; PST UFR120, alone): 8 µg/mL
MIC ([11]; PST UFR121, alone): 4 µg/mL
MIC ([11]; PST UFR122, alone): 4 µg/mL
MIC ([11]; PST UFR123, alone): 8 µg/mL
MIC ([11]; PST UFR124, alone): 8 µg/mL
MIC ([11]; PST UFR125, alone): 8 µg/mL
MIC ([11]; PST UFR235, alone): 16 µg/mL
MIC [11, 29]: 32 µg/mL
MIC [12]: 8 µg/mL
IC50 [13]: 2100 nM
